{"source": "patent US5912183A", "about": "“Peptide inhibitors of mitogenesis and motogenesis” (Pharmacia & Upjohn S.p.A., priority 1993, dated 1999)", "key": {"[1]": {"biological_target": "T1, binding of p85 to HGF/SF receptor (Bos taurus, UniProt P23727)", "T1 construct": "made in house; host or cells: Sf9 insect cells (baculovirus), for both p85 and the receptor", "T1 sequence (P23727 whole entry)": "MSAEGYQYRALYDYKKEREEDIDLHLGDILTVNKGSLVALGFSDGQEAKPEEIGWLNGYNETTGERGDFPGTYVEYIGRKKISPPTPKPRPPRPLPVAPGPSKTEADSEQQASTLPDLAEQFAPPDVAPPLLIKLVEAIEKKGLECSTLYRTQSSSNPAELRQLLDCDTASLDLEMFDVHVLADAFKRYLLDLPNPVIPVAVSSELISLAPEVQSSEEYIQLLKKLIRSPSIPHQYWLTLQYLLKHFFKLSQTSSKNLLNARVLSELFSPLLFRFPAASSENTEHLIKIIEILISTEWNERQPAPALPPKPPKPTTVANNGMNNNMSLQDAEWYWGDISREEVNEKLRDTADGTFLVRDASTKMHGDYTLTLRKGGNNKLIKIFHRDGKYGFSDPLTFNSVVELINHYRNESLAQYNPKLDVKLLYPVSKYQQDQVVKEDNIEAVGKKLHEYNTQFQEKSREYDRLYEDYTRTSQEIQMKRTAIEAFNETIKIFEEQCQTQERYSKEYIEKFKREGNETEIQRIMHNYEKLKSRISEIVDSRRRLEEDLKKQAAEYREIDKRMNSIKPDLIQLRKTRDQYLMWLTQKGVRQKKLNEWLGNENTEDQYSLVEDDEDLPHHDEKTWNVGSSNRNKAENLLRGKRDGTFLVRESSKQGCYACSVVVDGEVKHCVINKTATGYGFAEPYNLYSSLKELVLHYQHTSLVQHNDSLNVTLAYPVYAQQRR", "assay": "Competition of phosphopeptides with p85 for association with immobilized recombinant HGF/SF receptor (in vitro kinase assay readout)", "parameters": "species or system human", "settings": "phosphopeptide 10 μM; p85 from Sf9 lysates; FIG. 1", "procedure": "FIG. 1. Inhibition of binding of p85 to HGF/SF receptor by tyrosine-phosphorylated peptides. Recombinant HGF/SF receptor was purified by immunoprecipitation from baculovirus-infected Sf9 cells using a rabbit polyclonal antiserum and phosphorylated with cold ATP. Lysates of Sf9 cells expressing p85 were pre-incubated with each of the phosphopeptides (10 μM). The lysates were then allowed to associate with immobilized recombinant HGF/SF receptors. Following association the complex was washed and receptor-bound p85 was detected by an in vitro kinase assay, as described in Materials and Methods of Example 4. The phosphopeptides are identified by the number of the amino terminal tyrosine.\nFIG. 2. Inhibition of binding of p85 to HGF/SF receptor with different concentrations of tyrosine-phosphorylated peptides. The phosphopeptides which efficiently out-competed p85 binding to the HGF/SF receptor (FIG. 1) were used at increasing concentrations (10 nM, 100 nM, 1 μM from left to right) to define their relative affinities for p85. Conditions of the experiment were as in FIG. 1. Phosphopeptide 1365 was used as a negative control for p85 interaction.\nIn vitro association experiments. Sf9 cells expressing the recombinant HGF/SF receptor (approximately 4×10^6 cells/point) were lysed 36 hours after infection in buffer A (10 mM Tris-HCl buffer pH 7.5, 10% glycerol, 1% Triton X-100, 150 mM NaCl, 5 mM EDTA), supplemented with 0.2 mM phenyl-methylsulfonyl fluoride, 1 μg/ml leupeptin, 0.1 TIU/ml aprotinin and 1 μg/ml pepstatin. Lysates were clarified at 15,000×g at 4° C. for 15 minutes and the supernatants immunoprecipitated after 2 hours incubation with anti-Met antibodies coupled to Protein A-Sepharose. Immunocomplexes were washed three times with buffer A, once with buffer B (10 mM Tris-HCl pH 7.4, 100 mM NaCl, 1 mM EDTA) and once with buffer C (25 mM 4-(2-hydroxyethyl)-1-piperazine-ethanesulfonic acid (HEPES) buffer pH 7.2, 100 mM NaCl, 5 mM MgCl2). Samples were pre-phosphorylated by incubation for 15 minutes at 25° C. in buffer C with 10 μM unlabelled ATP and then washed three times with cold buffer A supplemented with 1 mM sodium ortho-vanadate. Association between the immobilized receptor and the baculovirus-expressed p85 was carried out as previously described (Bardelli, A., et al., Oncogene 7: 1973-1978 (1992)). For the association experiments with the PI 3-kinase holoenzyme three days serum-starved A549 cells (approx. 2×10^6 cells/point) were used as a source of PI 3-kinase. A549 cells were Dounce-homogenized in MOPS buffer (20 mM 3-(N-morpholino)propanesulfonic acid) (pH 7.5), 1 mM MgCl2, 0.1 mM EDTA, 200 mM sucrose, 1 mM sodium ortho-vanadate), supplemented with 0.2 mM phenylmethylsulfonyl fluoride, 1 μg/ml leupeptin, 0.1 TIU/ml aprotinin and 1 μg/ml pepstatin. Homogenates were centrifuged at 100,000×g for 20 minutes at 4° C. When checking for the ability of phosphopeptides to block the association with the receptor, cell lysates were pre-incubated with the phosphopeptides for 1 hour at 4° C. prior to incubation with the immobilized recombinant HGF/SF receptor. Following association, immunocomplexes were washed three times with buffer A, twice with buffer D (0.5M LiCl, 100 mM Tris-HCl pH 7.6), and twice with buffer B.\nThe presence of the p85 subunit of the PI 3-kinase in the receptor immunoprecipitate was determined by: i) labelling of the receptor and associated proteins with [γ-^32 P]ATP by in vitro kinase assay; ii) Western immunoblotting; iii) PI 3-kinase activity assay.\nIn vitro kinase assay. Receptor-associated proteins were labelled in 20 μl of buffer C, in the presence of 10 μCi [γ-^32 P]ATP (specific activity 7,000 Ci/Mm; Amersham) at 25° C. for 15 minutes. The reaction was stopped by adding 1 ml of ice-cold Buffer A without protease inhibitors. Samples were washed three times with cold buffer A. The labelled immunocomplexes were eluted from Protein A-Sepharose in boiling Laemmli buffer. […]"}, "[2]": {"test_system": "N- and C-SH2 domains of p85", "assay": "BIAcore inhibition of binding of GST-SH2 domains to immobilized PDGF receptor phosphopeptide Y751", "parameters": "species or system bovine", "settings": "range of phosphopeptide concentrations; 25° C.; FIG. 7", "procedure": "FIG. 7. Evaluation of the relative affinities of phosphotyrosine 1313, 1349 and 1356 for the N- and C- SH2 domains of p85. Affinities were determined by biospecific interaction analysis with the BIAcore instrument (Jonsson, U., Fagerstam, L., Roos, H., Ronnberg, J., Sjolander, Stenber, E., Stahlberg, R. Urbaniczky, C., Ostlin, H., and Malmquist. 1991. Surface plasmon reasonance and microfluidics for real time biospecific interaction analysis. Biotechniques 11: 520-527; Jonsson, U. and M. Malmquist. 1992. Real time biospecific analysis. The integration of surface plasmon reasonance detection, general biospecific interface chemistry and microfluidics into one analytical system p. 291-336. In F. Turner (ed), Advances in Biosensors, vol. 2 JAI Press, London; Karlsson, R., Michaelsson, A., and L. Mattsson. 1991. Kinetic analysis of monoclonal antibody-antigen interactions with a new biosensor based analytical system. J. Immunol. Meth. 145: 229-246).\nRelative affinities were determined by measuring the ability of the phosphopeptides to inhibit the interaction of the SH2 domains with an immobilized phosphopeptide (DMSKDESVDY*VPMLDMK) (SEQ. ID NO: 26) which includes Y751 in the human PDGF receptor. Panel A and B show the results of these measurements, expressed as % inhibition of binding to phosphopeptide Y751.\nGST-SH2 domain fusion proteins. The N- and C-SH2 domains of the bovine PI 3-kinase p85 subunit (amino acids 314-431 and 612-722) were obtained by polymerase chain reaction and cloned into the pGEX-2 bacterial expression vector (Smith, D. B., and Johnson K. S., Gene 67: 31-40 (1988).\nGlutathione-S-transferase (GST)-SH2 fusion proteins were purified from bacterial lysates by glutathione affinity chromatography (Panayotou, G., et al. EMBO J., 11: 4261-4272 (1992)). Amino acid analysis on an Applied Biosystems 420A analyzer was used to determine the concentration of the recombinant proteins.\nAnalysis of the interaction of Y1349 and Y1356 with the p85 N- and C- SH2 domains using the BIAcore. […]"}}, "note": "Residues, ends and D or L forms follow the SMILES beside them."}
{"smiles": "CC(C)[C@H](NC(=O)[C@H](Cc1c[nH]cn1)NC(=O)[C@@H](NC(=O)[C@@H](N)Cc1ccc(OP(=O)(O)O)cc1)C(C)C)C(=O)N[C@@H](CC(N)=O)C(=O)N[C@@H](C)C(=O)N[C@H](C(=O)N[C@@H](Cc1ccc(O)cc1)C(=O)O)[C@@H](C)O", "note": "[H-Tyr*-Val-His-Val-Asn-Ala-Thr-Tyr-OH] (HELM PEPTIDE1{[N[C@@H](Cc1ccc(OP(=O)(O)O)cc1)C(=O)[*:2]].V.H.V.N.A.T.Y}$$$$V2.0)", "values": [{"measurement": "Inhibition of binding of p85 to HGF/SF receptor", "setting": "[1]", "result": "efficiently outcompeted p85"}, {"measurement": "Apparent relative affinity: inhibition of binding of p85 N- and C-SH2 domains to phosphopeptide Y751", "setting": "[2]", "result": "inhibit binding of p85 N- and C-SH2 domains to phosphopeptide Y751, but at higher concentrations"}]}
{"smiles": "CC(C)[C@H](NC(=O)[C@H](CS)NC(=O)[C@H](CCCCN)NC(=O)[C@@H](NC(=O)[C@H](CC(N)=O)NC(=O)[C@@H](NC(=O)[C@@H](N)Cc1ccc(OP(=O)(O)O)cc1)C(C)C)C(C)C)C(=O)N[C@@H](C)C(=O)O", "note": "[H-Tyr*-Val-Asn-Val-Lys-Cys-Val-Ala-OH] (HELM PEPTIDE1{[N[C@@H](Cc1ccc(OP(=O)(O)O)cc1)C(=O)[*:2]].V.N.V.K.C.V.A}$$$$V2.0)", "values": [{"measurement": "Inhibition of binding of p85 to HGF/SF receptor", "setting": "[1]", "result": "efficiently outcompeted p85"}, {"measurement": "Apparent relative affinity: inhibition of binding of p85 N- and C-SH2 domains to phosphopeptide Y751", "setting": "[2]", "result": "inhibit binding of p85 N- and C-SH2 domains to phosphopeptide Y751, but at higher concentrations"}]}
